Data on 47 compounds can be found in patent US20230079819A1, “COMPOUNDS AND USES THEREOF” (Foghorn Therapeutics Inc., priority 2019, published 2023).

Each structure is given as a SMILES string.

One assay concerns the target T1, BRM (Homo sapiens, UniProt P51531).
T1 construct: made in house; host or cells: High Five insect cells
The assay can be described thus: ATPase catalytic activity of BRM, ADP-Glo in vitro biochemical assay. As to conditions: ATPase catalytic activity, 30 nM BRM, 400 μM ATP, read-out: BRM IP50.

For the next assay, the target named is T2, BRG-1 (Homo sapiens, UniProt P51532).
T2 construct: made in house; host or cells: High Five insect cells
The assay can be described thus: ATPase catalytic activity of BRG-1, ADP-Glo in vitro biochemical assay. As to conditions: ATPase catalytic activity, 30 nM BRG-1, 400 μM ATP, read-out: BRG1 IP50. A general note: In ADP-Glo the light output rises with the ADP produced.

T2 sequence (P51532 whole entry): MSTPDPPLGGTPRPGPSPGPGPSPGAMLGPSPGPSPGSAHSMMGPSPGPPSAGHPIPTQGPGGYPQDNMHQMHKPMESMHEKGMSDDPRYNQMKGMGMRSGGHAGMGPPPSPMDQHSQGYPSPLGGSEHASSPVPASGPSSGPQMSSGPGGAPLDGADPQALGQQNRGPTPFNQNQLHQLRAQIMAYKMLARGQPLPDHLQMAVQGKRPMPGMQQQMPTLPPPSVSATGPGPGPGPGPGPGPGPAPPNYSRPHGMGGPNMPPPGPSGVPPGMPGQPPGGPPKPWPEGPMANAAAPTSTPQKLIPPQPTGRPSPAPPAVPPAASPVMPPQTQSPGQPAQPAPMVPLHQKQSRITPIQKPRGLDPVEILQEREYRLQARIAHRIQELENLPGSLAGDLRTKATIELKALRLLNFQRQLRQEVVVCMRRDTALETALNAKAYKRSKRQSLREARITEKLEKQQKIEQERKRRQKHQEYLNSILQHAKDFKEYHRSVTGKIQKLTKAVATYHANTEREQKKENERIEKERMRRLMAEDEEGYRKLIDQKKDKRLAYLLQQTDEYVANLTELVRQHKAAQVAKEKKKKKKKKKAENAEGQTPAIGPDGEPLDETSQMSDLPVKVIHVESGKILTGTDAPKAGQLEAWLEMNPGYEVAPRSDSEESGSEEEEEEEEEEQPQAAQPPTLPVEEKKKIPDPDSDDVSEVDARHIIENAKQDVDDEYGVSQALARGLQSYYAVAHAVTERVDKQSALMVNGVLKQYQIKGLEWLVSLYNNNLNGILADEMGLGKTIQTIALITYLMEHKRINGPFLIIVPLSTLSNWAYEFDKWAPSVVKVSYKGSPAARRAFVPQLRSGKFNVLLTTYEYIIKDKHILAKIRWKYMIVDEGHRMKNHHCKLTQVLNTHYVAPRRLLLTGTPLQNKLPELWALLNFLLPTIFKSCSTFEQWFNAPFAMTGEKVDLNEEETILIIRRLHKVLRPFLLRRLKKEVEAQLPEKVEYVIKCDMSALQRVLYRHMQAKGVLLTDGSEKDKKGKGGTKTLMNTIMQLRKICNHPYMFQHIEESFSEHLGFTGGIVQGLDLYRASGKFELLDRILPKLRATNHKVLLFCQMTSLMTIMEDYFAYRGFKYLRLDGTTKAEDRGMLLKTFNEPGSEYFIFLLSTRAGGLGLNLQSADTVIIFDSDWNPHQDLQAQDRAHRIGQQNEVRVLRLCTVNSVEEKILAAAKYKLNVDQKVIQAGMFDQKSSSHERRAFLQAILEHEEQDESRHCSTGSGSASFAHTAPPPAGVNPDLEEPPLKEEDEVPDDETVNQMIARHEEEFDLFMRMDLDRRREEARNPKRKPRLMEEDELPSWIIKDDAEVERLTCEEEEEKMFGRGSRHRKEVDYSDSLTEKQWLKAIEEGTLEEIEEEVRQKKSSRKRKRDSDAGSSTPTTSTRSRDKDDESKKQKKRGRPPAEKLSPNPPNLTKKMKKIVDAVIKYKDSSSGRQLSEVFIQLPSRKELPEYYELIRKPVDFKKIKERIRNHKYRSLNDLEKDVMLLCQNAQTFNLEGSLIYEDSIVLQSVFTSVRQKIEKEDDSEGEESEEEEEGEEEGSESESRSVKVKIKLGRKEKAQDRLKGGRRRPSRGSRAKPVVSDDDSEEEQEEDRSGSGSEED
T1 sequence (P51531 whole entry): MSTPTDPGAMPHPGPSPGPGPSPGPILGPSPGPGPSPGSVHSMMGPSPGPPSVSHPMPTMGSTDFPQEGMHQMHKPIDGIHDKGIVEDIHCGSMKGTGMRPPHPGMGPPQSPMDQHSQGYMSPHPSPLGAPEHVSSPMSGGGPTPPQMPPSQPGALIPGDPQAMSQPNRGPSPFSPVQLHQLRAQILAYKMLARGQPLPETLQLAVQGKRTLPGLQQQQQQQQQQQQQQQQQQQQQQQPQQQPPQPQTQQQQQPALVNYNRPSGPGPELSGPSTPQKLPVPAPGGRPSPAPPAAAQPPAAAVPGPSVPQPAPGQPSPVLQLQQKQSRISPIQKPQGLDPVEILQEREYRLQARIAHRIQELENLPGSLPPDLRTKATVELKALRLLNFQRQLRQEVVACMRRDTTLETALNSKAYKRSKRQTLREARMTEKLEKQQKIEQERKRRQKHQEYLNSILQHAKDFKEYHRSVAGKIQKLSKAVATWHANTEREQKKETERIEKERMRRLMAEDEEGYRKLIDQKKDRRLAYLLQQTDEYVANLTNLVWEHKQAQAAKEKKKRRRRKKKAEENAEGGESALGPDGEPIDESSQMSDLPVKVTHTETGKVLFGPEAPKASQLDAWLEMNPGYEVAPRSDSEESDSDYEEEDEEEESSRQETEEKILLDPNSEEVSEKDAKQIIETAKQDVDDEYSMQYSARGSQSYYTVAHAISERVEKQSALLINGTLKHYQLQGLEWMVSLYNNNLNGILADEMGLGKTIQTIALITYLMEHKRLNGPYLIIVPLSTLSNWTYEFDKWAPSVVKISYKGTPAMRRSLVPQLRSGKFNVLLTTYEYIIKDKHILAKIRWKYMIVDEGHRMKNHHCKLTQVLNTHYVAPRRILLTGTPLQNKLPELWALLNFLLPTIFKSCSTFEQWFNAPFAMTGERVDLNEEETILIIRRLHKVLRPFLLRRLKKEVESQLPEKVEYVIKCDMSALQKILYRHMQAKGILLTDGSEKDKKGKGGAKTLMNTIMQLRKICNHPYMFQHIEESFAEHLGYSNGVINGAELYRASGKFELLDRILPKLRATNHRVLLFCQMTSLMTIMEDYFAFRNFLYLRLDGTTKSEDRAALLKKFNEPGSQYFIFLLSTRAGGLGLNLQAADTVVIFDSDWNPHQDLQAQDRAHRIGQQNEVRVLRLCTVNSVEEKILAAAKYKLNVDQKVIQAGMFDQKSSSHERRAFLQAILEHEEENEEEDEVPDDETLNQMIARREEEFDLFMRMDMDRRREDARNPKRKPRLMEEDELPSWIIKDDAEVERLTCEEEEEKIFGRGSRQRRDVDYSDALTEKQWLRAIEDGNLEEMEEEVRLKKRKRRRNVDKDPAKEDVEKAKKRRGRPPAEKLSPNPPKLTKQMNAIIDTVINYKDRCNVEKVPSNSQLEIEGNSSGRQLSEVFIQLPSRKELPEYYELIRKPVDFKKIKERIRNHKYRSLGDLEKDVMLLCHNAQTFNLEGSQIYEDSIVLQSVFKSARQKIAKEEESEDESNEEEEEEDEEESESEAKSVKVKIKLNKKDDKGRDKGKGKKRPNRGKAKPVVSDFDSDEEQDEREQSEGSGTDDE

`COC[C@H](NC(=O)c1ccn(S(C)(=O)=O)c1)C(=O)Nc1nc(-c2cncc(N3C[C@@H](C)O[C@@H](C)C3)n2)cs1` [Compound 707]: the IC50 on BRM and at BRG-1 was more than 10 nM in each case.

Regarding `COC[C@H](NC(=O)c1ccn(S(C)(=O)=O)c1)C(=O)Nc1nc(-c2cc(F)c3c(c2)CCO3)cs1` [Compound 708], the IC50 on BRM and on BRG-1 was less than 10 nM in each case.

Turning to `CC(C)(C)n1ccc(C(=O)NCC(=O)Nc2nc(-c3cccc(N4CCCC(n5cncn5)C4)n3)cs2)c1` (stereo not shown) [Compound 709], the IC50 on BRM and on BRG-1 was more than 10 nM in each case.

`COC[C@H](NC(=O)c1ccn(S(C)(=O)=O)c1)C(=O)Nc1nc(-c2cccc(OC)c2F)cs1` [Compound 710]: the IC50 on BRM and at BRG-1 was more than 10 nM in each case.

On to `COc1cccc(-c2csc(NC(=O)CNC(=O)c3ccn(S(C)(=O)=O)c3)n2)c1F` [Compound 711], for which the IC50 at BRM and at BRG-1 was more than 10 nM each time.

`COC[C@H](NC(=O)c1ccn(S(C)(=O)=O)c1)C(=O)Nc1nc(-c2cccc(C#N)c2)cs1` [Compound 712]: the IC50 on BRM and at BRG-1 was more than 10 nM in each case.

Take `COC[C@H](NC(=O)c1ccn(S(C)(=O)=O)c1)C(=O)Nc1nc(-c2cc(F)c3c(c2)N(C)CC3)cs1` [Compound 713]: the IC50 at BRM and at BRG-1 was less than 10 nM each time.

For the compound `COC[C@H](NC(=O)c1ccn(S(C)(=O)=O)c1)C(=O)Nc1nc(-c2cc(F)cc(C#N)c2)cs1` [Compound 714], the IC50 on BRM and on BRG-1 was more than 10 nM in each case.

In the case of `CS(=O)(=O)n1ccc(C(=O)NCC(=O)Nc2nc(-c3cc(F)cc(C#N)c3)cs2)c1` [Compound 715], the IC50 on BRM and at BRG-1 was more than 10 nM in each case.

As to `COC[C@H](NC(=O)c1ccn(S(C)(=O)=O)c1)C(=O)Nc1nc(-c2ccc(F)c(OC)c2)cs1` [Compound 716], the IC50 at BRM and on BRG-1 was more than 10 nM in each case.

On to `CS(=O)(=O)n1ccc(C(=O)NCC(=O)Nc2nc(-c3cccc([C@H]4[C@@H]5COC[C@@H]54)c3)cs2)c1` [Compound 717], for which the IC50 at BRM and at BRG-1 was more than 10 nM in each case.

As to `COc1cc(-c2csc(NC(=O)CNC(=O)c3ccn(S(C)(=O)=O)c3)n2)ccc1F` [Compound 718], the IC50 at BRM and on BRG-1 was more than 10 nM each time.

As to `CS(=O)(=O)n1ccc(C(=O)NCC(=O)Nc2nc(-c3cc(F)c4c(c3)C(F)(F)CC4)cs2)c1` [Compound 719], the IC50 on BRM and at BRG-1 was less than 10 nM in each case.

With `CS(=O)(=O)n1ccc(C(=O)NCC(=O)Nc2nc(-c3ccc4c(c3)C(F)(F)CC4)cs2)c1` [Compound 720], the IC50 at BRM and on BRG-1 was more than 10 nM in each case.

`COC[C@H](NC(=O)c1ccn(S(C)(=O)=O)c1)C(=O)Nc1nc(-c2cc(Cl)cc(C#N)c2)cs1` [Compound 721]: the IC50 on BRM and on BRG-1 was more than 10 nM each time.

`CS(=O)(=O)n1ccc(C(=O)NCC(=O)Nc2nc(-c3cc(Cl)cc(C#N)c3)cs2)c1` [Compound 722]: the IC50 on BRM and at BRG-1 was more than 10 nM throughout.

In the case of `COC[C@H](NC(=O)c1ccn(S(C)(=O)=O)c1)C(=O)Nc1nc(-c2cc(F)cc(OC)c2)cs1` [Compound 726], the IC50 on BRM and at BRG-1 was less than 10 nM in each case.

In the case of `CC(C)(C)n1ccc(C(=O)NCC(=O)Nc2nc(-c3cccc(N4CC[C@@H]5COC[C@H]5C4)n3)cs2)c1` [Compound 727], the IC50 on BRM was less than 10 nM; at BRG-1 it was more than 10 nM.

Regarding `COC[C@H](NC(=O)c1ccn(S(C)(=O)=O)c1)C(=O)Nc1nc(-c2ccc3c(c2)OC(F)(F)O3)cs1` [Compound 728], the IC50 at BRM and at BRG-1 was more than 10 nM throughout.

In the case of `COC[C@H](NC(=O)c1ccn(C2(C#N)CCC2)c1)C(=O)Nc1nc(-c2cccc(N3C[C@@H](C)O[C@@H](C)C3)n2)cs1` [Compound 730], the IC50 at BRM and on BRG-1 was less than 10 nM throughout.

Take `C[C@@H]1CN(c2cccc(-c3csc(NC(=O)CNC(=O)c4ccn(C5(C#N)CCC5)c4)n3)n2)C[C@H](C)O1` [Compound 731]: the IC50 on BRM and at BRG-1 was less than 10 nM in each case.

In the case of `COC[C@H](NC(=O)c1ccn(S(C)(=O)=O)c1)C(=O)Nc1nc(-c2ccc3c(c2)C(F)(F)CC3)cs1` [Compound 732], the IC50 on BRM and at BRG-1 was more than 10 nM in each case.

With `COC[C@H](NC(=O)c1ccn(S(C)(=O)=O)c1)C(=O)Nc1nc(-c2cc(F)c3c(c2)C(F)(F)CC3)cs1` [Compound 733], the IC50 on BRM and at BRG-1 was less than 10 nM each time.

For `COC[C@H](NC(=O)c1ccn(S(C)(=O)=O)c1)C(=O)Nc1nc(-c2cc(C)cc(N3C[C@@H](C)O[C@@H](C)C3)n2)cs1` [Compound 734], the IC50 on BRM and at BRG-1 was less than 10 nM each time.

For `COC[C@H](NC(=O)c1ccn(S(C)(=O)=O)c1)C(=O)Nc1nc(-c2ccc3c(c2)CCN3C)cs1` [Compound 735], the IC50 at BRM and at BRG-1 was more than 10 nM throughout.

As for `C[C@@H]1CN(c2cccc(-c3csc(NC(=O)CNC(=O)c4ccn(C5(CF)COC5)c4)n3)n2)C[C@H](C)O1` [Compound 736], the IC50 at BRM and on BRG-1 was less than 10 nM in each case.

As for `C[C@@H]1CN(c2cccc(-c3csc(NC(=O)CNC(=O)c4ccn(C5(C(F)F)CC5)c4)n3)n2)C[C@H](C)O1` [Compound 737], the IC50 at BRM and on BRG-1 was less than 10 nM in each case.

For the compound `COC[C@H](NC(=O)c1ccn(S(C)(=O)=O)c1)C(=O)Nc1nc(-c2cc(F)cc(-c3cnn(C)n3)c2)cs1` [Compound 738], the IC50 at BRM and at BRG-1 was less than 10 nM each time.

With `COC[C@H](NC(=O)c1ccn(C(C)(C)C#N)c1)C(=O)Nc1nc(-c2cc(F)cc(-c3cnn(C)n3)c2)cs1` [Compound 739], the IC50 at BRM and on BRG-1 was less than 10 nM throughout.

`COC[C@H](NC(=O)c1ccn(C(C)(C)C#N)c1)C(=O)Nc1nc(-c2cc(C)cc(N3C[C@@H](C)O[C@@H](C)C3)n2)cs1` [Compound 740]: the IC50 on BRM and on BRG-1 was less than 10 nM in each case.

With `CS(=O)(=O)n1ccc(C(=O)NCC(=O)Nc2nc(-c3cccc(C45CCOCC4C5)c3)cs2)c1` (stereo not shown) [Compound 743], the IC50 on BRM and at BRG-1 was more than 10 nM in each case.

On to `CC(C)(C)n1ccc(C(=O)NCC(=O)Nc2nc(-c3cccc(C45CCOCC4C5)c3)cs2)c1` (stereo not shown) [Compound 744], for which the IC50 at BRM and at BRG-1 was more than 10 nM in each case.

Turning to `CS(=O)(=O)n1ccc(C(=O)NCC(=O)Nc2nc(-c3cccc(N4CC[C@H]5COC[C@@H]5C4)n3)cs2)c1` [Compound 745], the IC50 at BRM and on BRG-1 was less than 10 nM throughout.

Take `CS(=O)(=O)n1ccc(C(=O)NCC(=O)Nc2nc(-c3cccc(N4CC[C@@H]5COC[C@H]5C4)n3)cs2)c1` [Compound 746]: the IC50 on BRM and on BRG-1 was less than 10 nM each time.

As to `C[C@@H]1CN(c2cccc(-c3csc(NC(=O)CNC(=O)c4ccn(C(C)(C)C(F)F)c4)n3)n2)C[C@H](C)O1` [Compound 748], the IC50 on BRM and on BRG-1 was less than 10 nM each time.

In the case of `CC(F)C(C)(F)n1ccc(C(=O)NCC(=O)Nc2nc(-c3cccc(N4C[C@@H](C)O[C@@H](C)C4)n3)cs2)c1` (stereo partly shown) [Compound 749], the IC50 on BRM and at BRG-1 was more than 100 nM each time.

Consider `CS(=O)(=O)n1ccc(C(=O)NCC(=O)Nc2nc(-c3cccc(C45CCOCC4C5)n3)cs2)c1` (stereo not shown) [Compound 750, 1-methylsulfonyl-N-[2-[[4-[6-(3-oxabicyclo[4.1.0]heptan-6-yl)-2-pyridyl]thiazol-2-yl]amino]-2-oxo-ethyl]pyrrole-3-carboxamide], for which the IC50 on BRM and at BRG-1 was more than 10 nM in each case.

Consider `CC(C)(C)n1ccc(C(=O)NCC(=O)Nc2nc(-c3cccc(C45CCOCC4C5)n3)cs2)c1` (stereo not shown) [Compound 751], for which the IC50 on BRM and at BRG-1 was more than 10 nM in each case.

For `COC[C@H](NC(=O)c1ccn(S(C)(=O)=O)c1)C(=O)Nc1nc(-c2cccc([C@]34CCOC[C@H]3C4)n2)cs1` [Compound 755], the IC50 at BRM and on BRG-1 was more than 10 nM in each case.

Take `COC[C@H](NC(=O)c1ccn(S(C)(=O)=O)c1)C(=O)Nc1nc(-c2cccc([C@@]34CCOC[C@@H]3C4)n2)cs1` [Compound 756]: the IC50 was more than 10 nM on BRM and more than 100 nM on BRG-1.

On to `CN(C)[C@H]1CCN(c2cccc(-c3csc(NC(=O)CNC(=O)c4ccn(S(C)(=O)=O)c4)n3)n2)CC1(F)F` [Compound 757], for which the IC50 on BRM and on BRG-1 was more than 100 nM in each case.

`COC[C@H](NC(=O)c1ccn(S(C)(=O)=O)c1)C(=O)Nc1nc(-c2cc(F)c3c(c2)CCN3C)cs1` [Compound 758]: the IC50 on BRM and on BRG-1 was less than 10 nM each time.

On to `COC[C@@H](NC(=O)c1ccn(S(C)(=O)=O)c1)C(=O)Nc1nc(-c2cc(F)c3c(c2)CCN3C)cs1` [Compound 759], for which the IC50 at BRM and on BRG-1 was more than 10 nM throughout.

Turning to `CN[C@H]1CCN(c2cccc(-c3csc(NC(=O)CNC(=O)c4ccn(S(C)(=O)=O)c4)n3)n2)CC1(F)F` [Compound 760], the IC50 at BRM and on BRG-1 was more than 100 nM in each case.

For the compound `CN(C)[C@@H]1CCN(c2cccc(-c3csc(NC(=O)CNC(=O)c4ccn(S(C)(=O)=O)c4)n3)n2)CC1(F)F` [Compound 762], the IC50 on BRM and on BRG-1 was more than 10 nM in each case.

With `CN[C@@H]1CCN(c2cccc(-c3csc(NC(=O)CNC(=O)c4ccn(S(C)(=O)=O)c4)n3)n2)CC1(F)F` [Compound 763, N-[2-[[4-[6-[(4R)-3,3-difluoro-4-(methylamino)-1-piperidyl]-2-pyridyl]thiazol-2-yl]amino]-2-oxo-ethyl]-1-methylsulfonyl-pyrrole-3-carboxamide], the IC50 on BRM and at BRG-1 was less than 10 nM throughout.

For `CS(=O)(=O)n1ccc(C(=O)NCC(=O)Nc2nc(-c3cccc(N4CC[C@H]5OCC[C@@H]5C4)n3)cs2)c1` [Compound 764], the IC50 at BRM and on BRG-1 was less than 10 nM in each case.
